According to publication PMC7428016, “Influence of ligand’s directional configuration, chrysenes as model compounds, on the binding activity with aryl hydrocarbon receptor” (Scientific Reports, 2020):

How the values were obtained:
AhR = biological target: T1, AhR (Rattus norvegicus, UniProt P41738); experiment: H4IIE-luc transactivation bioassay (AhR-mediated potency)
T1 sequence (P41738 10-853): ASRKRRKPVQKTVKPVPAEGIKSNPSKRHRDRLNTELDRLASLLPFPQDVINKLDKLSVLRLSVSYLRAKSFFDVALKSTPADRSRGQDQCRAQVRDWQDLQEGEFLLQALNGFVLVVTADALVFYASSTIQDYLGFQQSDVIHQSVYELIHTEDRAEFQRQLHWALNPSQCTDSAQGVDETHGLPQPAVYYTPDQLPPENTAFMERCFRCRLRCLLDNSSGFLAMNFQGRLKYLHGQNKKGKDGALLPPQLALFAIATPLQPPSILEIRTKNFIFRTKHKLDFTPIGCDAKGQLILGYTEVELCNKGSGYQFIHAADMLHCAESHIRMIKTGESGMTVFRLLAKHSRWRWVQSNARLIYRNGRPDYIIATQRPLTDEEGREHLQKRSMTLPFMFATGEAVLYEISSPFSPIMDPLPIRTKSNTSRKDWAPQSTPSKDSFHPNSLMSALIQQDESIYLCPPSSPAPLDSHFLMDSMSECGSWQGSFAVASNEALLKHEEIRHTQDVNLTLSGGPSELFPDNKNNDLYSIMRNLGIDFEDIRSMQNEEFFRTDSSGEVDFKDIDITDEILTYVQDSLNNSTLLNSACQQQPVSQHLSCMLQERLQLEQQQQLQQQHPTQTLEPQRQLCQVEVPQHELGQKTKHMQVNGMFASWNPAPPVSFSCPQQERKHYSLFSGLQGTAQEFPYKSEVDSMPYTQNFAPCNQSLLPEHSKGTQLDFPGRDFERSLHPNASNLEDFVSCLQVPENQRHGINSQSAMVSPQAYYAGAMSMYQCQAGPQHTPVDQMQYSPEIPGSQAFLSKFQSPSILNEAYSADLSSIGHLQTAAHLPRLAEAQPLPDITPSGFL
From the text: H4IIE cell line derived from rat hepatoma has been reported to continuously express cytochrome P450 protein/mRNA. For this study, H4IIE cells transfected with the luciferase (Luc) reporter gene plasmid (pGudLuc1.1) were used, originally obtained from Jac Aarts, University of Wageningen, The Netherlands and further developed by John Giesy, University of Saskatchewan[44],[45]. Upon ligand binding, AhR in H4IIE-luc is activated and translocated to the nucleus, where heat shock proteins are dissociated from the complex and they form a dimer with the AhR nuclear translocator (ARNT) protein. This complex binds to specific DNA sequences with high affinity, the dioxin-responsive element (DRE). The binding to the DRE results in DNA bending transcriptional activation of adjacent responsive genes.
Acute toxic potencies of chrysene homologues were determined based on an AhR-mediated activity using H4IIE-luc cells, by the method previously reported. […] After the exposure, the activity results were expressed as relative luminescence units that were quantified using a Victor X3 multi label plate reader (PerkinElmer, Waltham, MA). Benzo[a]pyrene was used as a positive control ligand. We converted responses of the H4IIE-luc bioassay to the percentages of the maximum response (%BaPmax) observed for a 50 nM BaP (= 100%BaPmax). All bioassays were repeated four times in triplicate (Table S4 for detail information of in vitro bioassay conditions). […] Estimations of EC50 values of target compounds from the dose–response relationships were basically assumed equal efficacy and parallelism between target compounds and reference compound (benzo[a]pyrene).
Table S4. In vitro transactivation bioassay conditions for evaluating toxicities of chemical compounds.

[1] = Table S1, not marked as estimated; cited from earlier work

In the case of `c1ccc2c(c1)cc1ccc3c4ccccc4cc4ccc2c1c43` [Dibenzo[b,def]chrysene], the EC50 (AhR) is listed as 14 µM and the “Log Kow” value [1] is listed as 7.28.

For `c1ccc2cc3c(ccc4c5ccccc5ccc34)cc2c1` [Benzo[b]chrysene], the EC50 (AhR) is listed as 2.8 µM and the “Log Kow” value [1] is listed as 7.11.

In the case of `Oc1ccc2ccc3c4ccccc4ccc3c2c1` [3-hydroxychrysene], the EC50 (AhR) is reported as 140 µM.

For `c1ccc2c(c1)ccc1c3ccccc3ccc21` [Chrysene], the EC50 (AhR) is listed as 7.2 µM and the “Log Kow” value [1] is listed as 5.81.

For `Cc1cccc2c1ccc1c3ccccc3ccc21` [1-methylchrysene], the EC50 (AhR) was 1.9 µM.

For `c1ccc2c(c1)cc1ccc3cccc4c5ccccc5c2c1c34` [Dibenzo[def,p]chrysene], the EC50 (AhR) is listed as 76 µM and the “Log Kow” value [1] is listed as 7.71.

Compound `Oc1ccc2c(ccc3c4ccccc4ccc23)c1` [2-hydroxychrysene] has an EC50 (AhR) of 59 µM.

Work on `Cc1ccc2ccc3c4ccccc4ccc3c2c1` [3-methylchrysene] yielded an EC50 (AhR) of 1.1 µM.

`Oc1cccc2c1ccc1c3ccccc3ccc21` [1-hydroxychrysene] gave an EC50 (AhR) of 87 µM.

Work on `Cc1ccc2c(ccc3c4ccccc4ccc23)c1` [2-methylchrysene] yielded an EC50 (AhR) of 0.66 µM.

In the case of `c1ccc2c(c1)ccc1c2ccc2ccc3ccccc3c21` [Benzo[c]chrysene], the EC50 (AhR) is listed as 1.3 µM and the “Log Kow” value [1] is listed as 7.11.

For `c1ccc2c(c1)ccc1c2ccc2c3ccccc3ccc21` [Benzo[a]chrysene], the EC50 (AhR) is listed as 20 µM and the “Log Kow” value [1] is listed as 7.11.
